Data set [1] is described as follows: Pharmacokinetic study, single oral dose in rats. Type of data set: in vivo. The conditions noted are these: Sprague-Dawley, rat; mean; male Sprague-Dawly rats, single oral dose 10 mg/kg in 0.5% methylcellulose suspension, overnight fasted; plasma, HPLC-UV. On the procedure: Male Sprague-Dawly rats were administered by oral gavage a single oral dose of 10 mg/kg b.wt. test compound in 0.5% methylcellulose suspension in overnight fasted (12 hrs before dose) condition. Fasting was continued till 4 hr post dose. Blood samples were collected predose and at 15 and 30 minutes and 1, 2, 3, 4, 6, 8, 12 and 24 hrs post-dose and were kept on an ice bath till further processing. These samples were separated for plasma by centrifuging at 4° C. for 10 minutes at 1000×g and then stored at −70° C. till further analysis. These samples were analyzed for the levels of the test compound by HPLC-UV and the pharmacokinetic parameters were calculated using these concentrations by using WinNonlin software (Pharsight Inc., USA, Version 5.1).

Regarding `CCCCCC(C)(C)NC(=O)c1nn(-c2ccc(F)cc2F)c2c1C1CCC2C1` (stereo not drawn), the melting point (in general, the temperature of the solid-liquid transition) was 76 to 78 °C.
On to `CC(C)(CO)NC(=O)c1nn(-c2ccc(Cl)cc2)c2c1[C@@H]1CC[C@H]2C1` (single isomer, unassigned) [Compound 98, (1S,7R)- or (1R,7S)-N5-(2-Hydroxy-1,1-dimethylethyl)-3-(4-chlorophenyl)-3,4-diazatricyclo[5.2.1.0^2,6]deca-2(6),4-diene-5-carboxamide], for which, in data set [1], the area under the curve AUC(0-inf) (as a rule, total exposure, with the tail of the curve extrapolated) is 12000 ng·h/mL; the AUC(0-t) – broadly, the area under the concentration-time curve up to a stated or last time point – was 11700 ng·h/mL; the concentration peaked (Cmax) at 1950 ng/mL; the Tmax (in general, the time at which the peak concentration occurs) came out at 30 min. For the same compound, the half-life (as a rule, how long it takes for the measured level to halve) in data set [1] is 286 min.

The values are drawn from patent publication US20080200501A1, “NOVEL CANNABINOID RECEPTOR LIGANDS, PHARMACEUTICAL COMPOSITIONS CONTAINING THEM, AND PROCESSES FOR THEIR PREPARATION” (Glenmark Pharmaceuticals S.A., priority 2006, published 2008).
